Assay results taken from publication PMC11571108, “Targeting PfCLK3 with Covalent Inhibitors: A Novel Strategy for Malaria Treatment” (Journal of Medicinal Chemistry, 2024).

Key:
CDK6/cyclinD3(h) = CDK6/cyclinD3(h) (Homo sapiens, UniProt Q00534); assay: biochemical
physchem = settings: pH 7.5, GSH t1/2, 37 °C, 10:1 ratio GSH:compound
[1] = molecular target: T1, PI3 Kinase (p110a/p85a)(h) (Homo sapiens, UniProt P42336); assay: KinaseProfiler radiometric assay; type: biochemical; settings: 1 µM compound
T1 construct: purchased Eurofins Discovery KinaseProfiler
From the text: (§1) A representative protocol for Abl is given below.

[2] = molecular target: T2, PI3 Kinase (p110d/p85a)(h) (Homo sapiens, UniProt O00329); assay: KinaseProfiler radiometric assay; type: biochemical; settings: 1 µM compound
T2 construct: purchased Eurofins Discovery KinaseProfiler
From the text: as §1

[3] = molecular target: T3, PI3 Kinase (p110b/p85a)(h) (Homo sapiens, UniProt P42338); assay: KinaseProfiler radiometric assay; type: biochemical; settings: 1 µM compound
T3 construct: purchased Eurofins Discovery KinaseProfiler
T3 sequence (P42338 whole entry): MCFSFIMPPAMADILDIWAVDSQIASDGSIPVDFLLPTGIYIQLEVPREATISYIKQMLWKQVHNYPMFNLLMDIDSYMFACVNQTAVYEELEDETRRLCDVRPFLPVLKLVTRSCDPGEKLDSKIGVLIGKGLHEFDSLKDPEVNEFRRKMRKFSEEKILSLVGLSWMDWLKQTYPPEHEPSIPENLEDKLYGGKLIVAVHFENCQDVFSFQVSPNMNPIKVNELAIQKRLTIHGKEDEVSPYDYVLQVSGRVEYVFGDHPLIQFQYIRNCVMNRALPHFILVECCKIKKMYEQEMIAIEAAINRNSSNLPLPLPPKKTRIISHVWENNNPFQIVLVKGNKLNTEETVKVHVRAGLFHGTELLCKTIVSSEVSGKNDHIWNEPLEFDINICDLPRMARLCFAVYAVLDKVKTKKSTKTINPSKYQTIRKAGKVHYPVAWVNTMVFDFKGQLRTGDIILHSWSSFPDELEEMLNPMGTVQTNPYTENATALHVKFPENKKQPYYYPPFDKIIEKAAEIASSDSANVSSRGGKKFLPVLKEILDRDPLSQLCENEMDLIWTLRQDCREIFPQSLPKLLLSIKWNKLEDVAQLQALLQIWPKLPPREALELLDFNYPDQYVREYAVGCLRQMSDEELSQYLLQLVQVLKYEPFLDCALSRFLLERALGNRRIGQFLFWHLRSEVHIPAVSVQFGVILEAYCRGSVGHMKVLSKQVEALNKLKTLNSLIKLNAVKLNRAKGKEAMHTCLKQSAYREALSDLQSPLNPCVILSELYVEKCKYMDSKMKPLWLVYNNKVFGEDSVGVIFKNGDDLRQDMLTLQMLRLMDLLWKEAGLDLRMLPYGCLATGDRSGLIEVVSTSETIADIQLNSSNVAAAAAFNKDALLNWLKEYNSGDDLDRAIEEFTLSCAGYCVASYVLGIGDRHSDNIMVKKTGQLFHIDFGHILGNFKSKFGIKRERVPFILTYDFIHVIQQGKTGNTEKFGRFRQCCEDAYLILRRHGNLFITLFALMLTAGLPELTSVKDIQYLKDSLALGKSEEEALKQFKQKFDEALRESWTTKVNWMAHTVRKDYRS
T3 sequence (P27986 whole entry partner): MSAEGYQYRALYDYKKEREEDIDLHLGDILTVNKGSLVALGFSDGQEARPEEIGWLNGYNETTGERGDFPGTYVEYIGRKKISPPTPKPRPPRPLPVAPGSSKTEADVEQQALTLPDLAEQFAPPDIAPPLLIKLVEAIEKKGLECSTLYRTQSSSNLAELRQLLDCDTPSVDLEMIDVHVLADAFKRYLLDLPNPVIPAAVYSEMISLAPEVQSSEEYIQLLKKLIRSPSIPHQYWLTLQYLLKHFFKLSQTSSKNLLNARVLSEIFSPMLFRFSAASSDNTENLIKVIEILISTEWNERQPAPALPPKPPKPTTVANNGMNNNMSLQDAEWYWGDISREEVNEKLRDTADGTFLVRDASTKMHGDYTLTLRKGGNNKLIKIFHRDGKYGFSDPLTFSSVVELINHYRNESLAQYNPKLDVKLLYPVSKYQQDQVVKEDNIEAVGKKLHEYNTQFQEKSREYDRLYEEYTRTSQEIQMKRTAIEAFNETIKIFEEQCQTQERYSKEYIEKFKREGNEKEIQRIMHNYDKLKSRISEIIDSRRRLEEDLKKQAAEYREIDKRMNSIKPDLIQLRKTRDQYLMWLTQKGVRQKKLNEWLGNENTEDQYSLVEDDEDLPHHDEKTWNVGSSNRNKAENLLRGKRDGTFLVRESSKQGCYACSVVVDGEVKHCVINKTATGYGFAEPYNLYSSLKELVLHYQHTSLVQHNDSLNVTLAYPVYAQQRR
From the text: as §1

[4] = molecular target: T4, recombinant full-length PfCLK3 (Plasmodium falciparum, UniProt Q8IIL5); assay: TR-FRET protein kinase assay; type: biochemical; settings: Apparent pIC50 (PfCLK3), 15 min preincubation, 2 h incubation
T4 sequence (Q8IIL5 1-699): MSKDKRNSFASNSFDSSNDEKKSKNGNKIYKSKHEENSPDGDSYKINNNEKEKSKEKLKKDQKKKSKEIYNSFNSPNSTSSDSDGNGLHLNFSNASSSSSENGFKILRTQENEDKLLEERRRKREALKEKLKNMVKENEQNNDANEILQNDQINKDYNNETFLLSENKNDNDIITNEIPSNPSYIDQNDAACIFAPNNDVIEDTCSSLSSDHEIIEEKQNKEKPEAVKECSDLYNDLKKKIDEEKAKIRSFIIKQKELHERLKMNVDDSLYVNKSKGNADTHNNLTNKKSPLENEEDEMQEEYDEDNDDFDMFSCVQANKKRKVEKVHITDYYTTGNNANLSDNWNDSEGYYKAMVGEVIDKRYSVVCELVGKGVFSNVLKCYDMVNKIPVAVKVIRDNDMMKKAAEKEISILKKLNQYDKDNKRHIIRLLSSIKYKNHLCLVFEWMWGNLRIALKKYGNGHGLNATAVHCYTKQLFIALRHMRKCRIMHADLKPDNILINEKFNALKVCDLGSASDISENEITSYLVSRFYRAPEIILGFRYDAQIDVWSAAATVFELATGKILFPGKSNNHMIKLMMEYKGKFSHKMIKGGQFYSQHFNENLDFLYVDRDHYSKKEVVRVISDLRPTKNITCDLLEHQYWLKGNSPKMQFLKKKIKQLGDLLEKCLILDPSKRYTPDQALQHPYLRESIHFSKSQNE
Method: To a black 384-well plate was added 2.5 μL of each concentration of inhibitor serially diluted 1 in 3, 11 times from a 40 μM (4×) top concentration normalized to 4% DMSO, and 5 μL of 50 nM (2×) recombinant PfCLK3. Both were dissolved in kinase buffer (50 mM HEPES 7.4, 1 mM EGTA, 1 mM MgCl2, 0.01% Tween, and 1 mM TCEP). […] 5 μL of detection mix (30 mM EDTA, 3 nM AntiMBP in 1× PerkinElmer Lance detection buffer) was added to quench the kinase reaction, and plates were incubated at room temperature in the dark for 1 h.

CK1γ1(h) = CK1γ1(h) (Homo sapiens, UniProt Q9HCP0); assay: biochemical
Microsomal stability = type: in vitro ADME; settings: human, liver microsomes, 0.5 mg/mL microsomes, 37 °C
Method: Peak areas were determined from extracted ion chromatograms.

Abl(h) = Abl(h) (Homo sapiens, UniProt P00519); assay: biochemical
CaMKI(h) = CaMKI(h) (Homo sapiens, UniProt Q14012); assay: biochemical
PAK2(h) = PAK2(h) (Homo sapiens, UniProt Q13177); assay: biochemical
Method: (§2) Compounds were evaluated using Eurofins Discovery’s KinaseProfiler Diversity Panel of 58 representative kinases. KinaseProfiler is a radiometric assay using [γ-^33P]-ATP to measure the phosphorylation of individual kinase substrates. A representative protocol for Abl is given below. Further details can be found by visiting the Eurofins Discovery Web site.
(§3) The reaction is initiated by the addition of the Mg/ATP mix. After incubation for 40 min at room temperature, the reaction is stopped by the addition of phosphoric acid to a concentration of 0.5%.

IRAK4(h) = IRAK4(h) (Homo sapiens, UniProt Q9NWZ3); assay: biochemical
Method: as §2, §3

MEK1(h) = MEK1(h) (Homo sapiens, UniProt Q02750); assay: biochemical
MEK1(h), sequence (Q02750 whole entry): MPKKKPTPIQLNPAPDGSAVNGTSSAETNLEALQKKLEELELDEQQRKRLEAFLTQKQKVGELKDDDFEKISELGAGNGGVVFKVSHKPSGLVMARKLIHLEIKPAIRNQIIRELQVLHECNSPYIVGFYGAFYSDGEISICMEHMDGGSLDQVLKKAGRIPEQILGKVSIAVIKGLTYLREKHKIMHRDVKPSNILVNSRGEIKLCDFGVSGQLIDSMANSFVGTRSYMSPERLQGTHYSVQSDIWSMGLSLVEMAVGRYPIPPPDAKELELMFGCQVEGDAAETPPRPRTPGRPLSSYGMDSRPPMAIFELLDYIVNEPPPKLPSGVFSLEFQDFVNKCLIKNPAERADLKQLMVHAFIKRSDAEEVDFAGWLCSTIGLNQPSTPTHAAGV
Method: as §2, §3

PKG1α(h) = PKG1α(h) (Homo sapiens, UniProt Q13976); assay: biochemical
Method: as §2, §3

Fyn(h) = Fyn(h) (Homo sapiens, UniProt P06241); assay: biochemical
Fyn(h), sequence (P06241 whole entry): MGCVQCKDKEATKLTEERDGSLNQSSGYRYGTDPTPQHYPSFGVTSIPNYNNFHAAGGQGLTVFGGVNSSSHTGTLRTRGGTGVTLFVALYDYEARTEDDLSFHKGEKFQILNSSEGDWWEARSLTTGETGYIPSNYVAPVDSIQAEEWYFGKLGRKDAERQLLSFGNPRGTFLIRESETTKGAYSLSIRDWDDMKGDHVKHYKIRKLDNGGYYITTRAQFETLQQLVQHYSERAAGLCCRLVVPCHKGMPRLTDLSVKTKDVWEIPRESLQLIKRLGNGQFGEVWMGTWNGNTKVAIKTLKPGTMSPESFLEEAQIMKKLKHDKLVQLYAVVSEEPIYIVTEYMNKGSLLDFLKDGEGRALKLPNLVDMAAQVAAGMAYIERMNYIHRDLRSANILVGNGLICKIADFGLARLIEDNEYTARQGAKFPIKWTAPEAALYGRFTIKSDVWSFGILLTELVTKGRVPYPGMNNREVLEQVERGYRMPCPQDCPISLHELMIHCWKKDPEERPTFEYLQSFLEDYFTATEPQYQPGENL
Method: as §2, §3

mTOR(h) = mTOR(h) (Homo sapiens, UniProt P42345); assay: biochemical
Method: as §2, §3

EGFR(h) = EGFR(h) (Homo sapiens, UniProt P00533); assay: biochemical
Method: as §2, §3

KDR(h) = KDR(h) (Homo sapiens, UniProt P35968); assay: biochemical
KDR(h), sequence (P35968 20-1356): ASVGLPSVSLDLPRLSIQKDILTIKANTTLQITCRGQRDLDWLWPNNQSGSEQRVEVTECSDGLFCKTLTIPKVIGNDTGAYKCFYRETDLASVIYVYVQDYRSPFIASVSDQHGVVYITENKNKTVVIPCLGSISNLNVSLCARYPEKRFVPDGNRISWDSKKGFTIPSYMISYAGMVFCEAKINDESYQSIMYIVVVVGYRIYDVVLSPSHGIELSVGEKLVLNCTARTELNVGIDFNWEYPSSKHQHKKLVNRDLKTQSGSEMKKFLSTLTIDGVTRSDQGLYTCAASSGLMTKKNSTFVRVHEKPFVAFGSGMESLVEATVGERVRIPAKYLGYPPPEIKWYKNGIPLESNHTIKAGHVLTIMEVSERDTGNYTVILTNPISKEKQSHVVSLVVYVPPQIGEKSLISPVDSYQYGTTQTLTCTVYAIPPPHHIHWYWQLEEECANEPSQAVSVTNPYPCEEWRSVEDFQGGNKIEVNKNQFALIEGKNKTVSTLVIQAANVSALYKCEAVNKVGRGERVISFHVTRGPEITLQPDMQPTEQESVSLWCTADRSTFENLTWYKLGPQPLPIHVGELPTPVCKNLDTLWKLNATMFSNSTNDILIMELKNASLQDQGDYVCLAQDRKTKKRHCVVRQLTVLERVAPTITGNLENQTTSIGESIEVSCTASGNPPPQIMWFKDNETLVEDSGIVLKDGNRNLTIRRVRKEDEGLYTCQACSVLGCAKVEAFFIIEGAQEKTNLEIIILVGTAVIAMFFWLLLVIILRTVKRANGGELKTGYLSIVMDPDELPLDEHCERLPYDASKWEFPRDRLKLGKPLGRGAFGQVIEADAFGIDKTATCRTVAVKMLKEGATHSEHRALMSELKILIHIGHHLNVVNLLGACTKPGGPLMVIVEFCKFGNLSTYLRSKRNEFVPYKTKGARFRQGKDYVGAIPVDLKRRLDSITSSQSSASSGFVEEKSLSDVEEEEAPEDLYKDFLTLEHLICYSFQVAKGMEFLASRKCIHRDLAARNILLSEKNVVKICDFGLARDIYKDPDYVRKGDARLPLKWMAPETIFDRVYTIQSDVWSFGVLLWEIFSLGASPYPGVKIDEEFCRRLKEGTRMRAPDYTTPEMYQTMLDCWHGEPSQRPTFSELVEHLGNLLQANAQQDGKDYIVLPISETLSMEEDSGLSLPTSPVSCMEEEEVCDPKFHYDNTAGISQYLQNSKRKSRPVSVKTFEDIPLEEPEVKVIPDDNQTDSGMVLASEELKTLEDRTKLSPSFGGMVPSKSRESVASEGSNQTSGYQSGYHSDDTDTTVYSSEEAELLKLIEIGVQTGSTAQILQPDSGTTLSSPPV
Method: as §2, §3

MSK2(h) = MSK2(h) (Homo sapiens, UniProt O75676); assay: biochemical
Method: as §2, §3

EphB4(h) = EphB4(h) (Homo sapiens, UniProt P54760); assay: biochemical
Method: as §2, §3

PRAK(h) = PRAK(h) (Homo sapiens, UniProt Q8IW41); assay: biochemical
PRAK(h), sequence (Q8IW41 whole entry): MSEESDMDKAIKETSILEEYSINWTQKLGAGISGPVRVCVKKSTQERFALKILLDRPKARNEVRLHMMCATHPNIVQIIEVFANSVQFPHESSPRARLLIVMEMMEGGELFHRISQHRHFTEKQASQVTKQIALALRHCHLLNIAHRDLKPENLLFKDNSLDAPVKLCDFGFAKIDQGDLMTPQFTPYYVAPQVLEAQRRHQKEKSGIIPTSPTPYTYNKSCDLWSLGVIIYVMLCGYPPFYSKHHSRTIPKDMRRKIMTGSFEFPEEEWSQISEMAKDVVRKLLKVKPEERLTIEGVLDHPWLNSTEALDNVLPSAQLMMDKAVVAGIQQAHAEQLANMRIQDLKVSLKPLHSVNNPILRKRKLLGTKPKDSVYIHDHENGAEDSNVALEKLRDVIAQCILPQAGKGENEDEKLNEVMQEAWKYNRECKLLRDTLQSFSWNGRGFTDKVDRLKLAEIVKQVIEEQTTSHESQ
Method: as §2, §3

PKCθ(h) = PKCθ(h) (Homo sapiens, UniProt Q04759); assay: biochemical
Method: as §2, §3

Pim-1(h) = Pim-1(h) (Homo sapiens, UniProt P11309); assay: biochemical
Method: as §2, §3

p70S6K(h) = p70S6K(h) (Homo sapiens, UniProt P23443); assay: biochemical
p70S6K(h), sequence (P23443 whole entry): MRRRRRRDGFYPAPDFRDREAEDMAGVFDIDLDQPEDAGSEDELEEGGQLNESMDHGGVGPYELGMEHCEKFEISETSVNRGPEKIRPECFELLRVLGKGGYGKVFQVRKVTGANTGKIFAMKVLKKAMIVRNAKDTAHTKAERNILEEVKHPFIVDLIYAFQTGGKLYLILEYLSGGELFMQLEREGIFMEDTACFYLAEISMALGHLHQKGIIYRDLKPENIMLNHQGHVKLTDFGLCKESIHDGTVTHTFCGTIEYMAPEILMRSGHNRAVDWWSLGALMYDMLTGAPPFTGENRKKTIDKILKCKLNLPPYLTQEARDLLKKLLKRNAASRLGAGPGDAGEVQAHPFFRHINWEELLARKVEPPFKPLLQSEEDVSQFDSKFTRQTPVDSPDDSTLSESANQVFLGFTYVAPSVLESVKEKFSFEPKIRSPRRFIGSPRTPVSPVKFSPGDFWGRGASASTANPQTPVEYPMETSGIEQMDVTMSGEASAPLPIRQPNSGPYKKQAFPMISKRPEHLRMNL
Method: as §2, §3

Rsk1(h) = Rsk1(h) (Homo sapiens, UniProt Q15418); assay: biochemical
Method: as §2, §3

CCN(CC)Cc1ccc(OC)c(-c2cc3c(-c4ccc(C(=O)O)c(C(C)C)c4)ccnc3[nH]2)c1 [Compound 1, TCMDC-135051]
remaining activity at 1 µM (CDK6/cyclinD3(h)): 82%
half-life at 1 mM (physchem): > 72 h
remaining activity at 1 µM [1]: 100%
remaining activity at 1 µM [2]: 73%
remaining activity at 1 µM [3]: 99%
IC50 ([4]; [ATP] = 500 μM): 87.1 nM
IC50 ([4]; [ATP] = 3 mM): 447 nM
IC50 ([4]; [ATP] = Km (5 μM)): 7.76 nM
remaining activity at 1 µM (CK1γ1(h)): 85%
microsomal CLint at 1 μM (Microsomal stability; read-out: HLM CLint (intrinsic clearance)): < 7.5 µL/min/mg
half-life at 1 μM (Microsomal stability; read-out: HLM t1/2): > 3.07 h
remaining activity at 1 µM (Abl(h)): 68%
remaining activity at 1 µM (CaMKI(h)): 100%
remaining activity at 1 µM (PAK2(h)): 110%
remaining activity at 1 µM (IRAK4(h)): 27%
remaining activity at 1 µM (MEK1(h)): 100%
remaining activity at 1 µM (PKG1α(h)): 105%
remaining activity at 1 µM (Fyn(h)): 49%
remaining activity at 1 µM (mTOR(h)): 100%
remaining activity at 1 µM (EGFR(h)): 95%
remaining activity at 1 µM (KDR(h)): 61%
remaining activity at 1 µM (MSK2(h)): 100%
remaining activity at 1 µM (EphB4(h)): 104%
remaining activity at 1 µM (PRAK(h)): 74%
remaining activity at 1 µM (PKCθ(h)): 108%
remaining activity at 1 µM (Pim-1(h)): 101%
remaining activity at 1 µM (p70S6K(h)): 100%
remaining activity at 1 µM (Rsk1(h)): 105%
